Experimental data: ChEMBL document CHEMBL5390201, “The Natural Alkaloid (-)-N-Hydroxyapiosporamide Suppresses Colorectal Tumor Progression as an NF-κB Pathway Inhibitor by Targeting the TAK1-TRAF6 Complex” (J Nat Prod, 2023)
Calls of active or inactive are those of the source. The calls are words filed in the database; no cut-off is given here.

Experiments:
[1] = tested on: HCT-116; test: Induction of cell cycle arrest in human HCT-116 cells assessed as accumulation of cells at G0/G1 phase at 10 uM by RNase/PI staining based flow cytometry analysis (reference value: 33.08 %); assay type: functional
[2] = tested on: HT-29; test: Antitumor activity against human HT-29 cells xenografted in athymic nude BALB/c mouse assessed as reduction in tumor volume at 5 to 15 mg/kg, ip administered every other day and measured every other day for 16 days; assay type: functional, organism-based; conditions: dose 5-15 mg/kg, time 16.0 day
[3] = tested on: HT-29; test: Induction of autophagic cell death in human HT-29 cells at 1 to 10 uM pretreated with 3-methyladenine for 1 hr followed by compound addition and measured after 24 hrs by SRB assay; assay type: functional, cell-based; conditions: dose 1-10 µM
[4] = tested on: HT-29; test: Antitumor activity against human HT-29 cells xenografted in athymic nude BALB/c mouse assessed as reduction in tumor weight at 5 to 15 mg/kg, ip administered every other day and measured every other day for 16 days; assay type: functional, organism-based; conditions: dose 5-15 mg/kg, time 16.0 day
[5] = tested on: HT-29; test: Induction of apoptosis in human HT-29 cells assessed as early apoptotic cells at 5 uM preincubated with Z-VAD-FMK for 1 hr followed by compound addition and measured after 24 hrs by Annexin V-FITC/PI staining based flow cytometric analysis (reference value: 4.05 %); assay type: functional
[6] = tested on: HCT-116; test: Cytotoxicity against human HCT-116 cells assessed as inhibition of cell growth by SRB assay; assay type: functional, cell-based; conditions: time 24-48 hrs, TDE = time-dependent effect
[7] = tested on: HCT-116; test: Induction of autophagic cell death in human HCT-116 cells at 1 to 10 uM pretreated with chloroquine for 1 hr followed by compound addition and measured after 24 hrs by SRB assay; assay type: functional, cell-based; conditions: dose 1-10 µM
[8] = molecular target: Nuclear factor NF-kappa-B complex (Homo sapiens) (UniProt Q00653+P19838+Q04206); test: Inhibition of TNF-alpha induced NFkappaB activation in human HCT-116 cells assessed as inhibition of p65 phosphorylation at 1 to 10 uM pretreated for 24 hrs followed by TNFalpha stimulation for 10 mins by Western blot analysis; assay type: cell-based; conditions: dose 1-10 µM, time 1450.0 min
[9] = tested on: HCT-116; test: Antitumor activity against human HCT-116 cells xenografted in athymic nude BALB/c mouse assessed as induction of apoptosis by measuring increase in cleaved PARP expression in tumor at 15 mg/kg, ip administered every other day and measured after 14 days by immunohistochemistry analysis; assay type: functional, organism-based; conditions: time 14.0 day
[10] = tested on: HCT-116; test: Induction of apoptosis in human HCT-116 cells assessed as early apoptotic cells at 0.5 uM incubated for 24 hrs by Annexin V-FITC/PI staining based flow cytometric analysis (reference value: 7.22 %); assay type: functional
[11] = tested on: HCT-116; test: Induction of autophagic flux in human HCT-116 cells assessed as increase in LC3I to LC3II conversion preincubated with chloroquine for 1 hr followed by compound addition and measured after 24 hrs by Western blot analysis; assay type: functional, cell-based
[12] = tested on: HT-29; test: Induction of apoptosis in human HT-29 cells assessed as late apoptotic cells at 0.5 uM incubated for 24 hrs by Annexin V-FITC/PI staining based flow cytometric analysis (reference value: 1.56 %); assay type: functional
[13] = tested on: Mus musculus; test: (§1) Anti-inflammatory activity in AOM/DSS-induced BALB/c mouse model inflammatory bowel disease assessed as reduction in colon length at 5 to 10 mg/kg, ip pretreated with AOM for 7 days further replaced with DSS for 7 days and repeated for 2 times followed by every 2 days compound treatment for […] starting from day 50 and measured once a week; assay type: functional, organism-based; conditions: dose 5-10 mg/kg, time 21.0 day
[14] = tested on: HT-29; test: Induction of apoptosis in human HT-29 cells assessed as necrotic cells at 10 uM incubated for 24 hrs by Annexin V-FITC/PI staining based flow cytometric analysis (reference value: 0.14 %); assay type: functional
[15] = tested on: HCT-116; test: Induction of cell cycle arrest in human HCT-116 cells assessed as decrease in Cdc25c protein expression upto 10 uM incubated for 24 hrs by Western blot analysis; assay type: functional, cell-based
[16] = tested on: HT-29; test: Induction of apoptosis in human HT-29 cells assessed as viable cells at 1 uM incubated for 24 hrs by Annexin V-FITC/PI staining based flow cytometric analysis (reference value: 93 %); assay type: functional; conditions: read-out: Activity
[17] = tested on: HT-29; test: Induction of autophagy in human HT-29 cells assessed as increase in LC3I to LC3II conversion at 1 to 10 uM incubated for 24 hrs by Western blotting analysis; assay type: functional, cell-based; conditions: dose 1-10 µM
[18] = tested on: HCT-116; test: Induction of autophagy in human HCT-116 cells assessed as increase in LC3 protein expression at 1 to 10 uM incubated for 24 hrs by Western blot analysis; assay type: functional, cell-based; conditions: dose 1-10 µM
[19] = tested on: HCT-116; test: Induction of apoptosis in human HCT-116 cells assessed as necrotic cells at 10 uM incubated for 24 hrs by Annexin V-FITC/PI staining based flow cytometric analysis (reference value: 1.1 %); assay type: functional
[20] = tested on: HT-29; test: Antitumor activity against human HT-29 cells xenografted in athymic nude BALB/c mouse assessed as induction of autophagy by measuring reduction in p62 expression in tumor at 15 mg/kg, ip administered every other day and measured after 14 days by immunohistochemistry analysis; assay type: functional, organism-based; conditions: time 14.0 day
[21] = tested on: HCT-116; test: Induction of apoptosis in human HCT-116 cells assessed as necrotic cells at 1 uM incubated for 24 hrs by Annexin V-FITC/PI staining based flow cytometric analysis (reference value: 1.1 %); assay type: functional
[22] = tested on: HT-29; test: Antitumor activity against human HT-29 cells xenografted in athymic nude BALB/c mouse assessed as induction of autophagy by measuring increase in LC3B expression in tumor at 15 mg/kg, ip administered every other day and measured after 14 days by immunohistochemistry analysis; assay type: functional, organism-based; conditions: time 14.0 day
[23] = tested on: HT-29; test: Induction of apoptosis in human HT-29 cells assessed as viable cells at 5 uM incubated for 24 hrs by Annexin V-FITC/PI staining based flow cytometric analysis (reference value: 88.3 %); assay type: functional; conditions: read-out: Activity
[24] = tested on: HT-29; test: Induction of autophagic flux in human HT-29 cells assessed as increase in LC3 protein expression preincubated with chloroquine for 1 hr followed by compound addition and measured after 24 hrs by Western blot analysis; assay type: functional, cell-based
[25] = Toxicity in athymic nude BALB/c mouse xenografted with human HT-29 cells assessed as pathological changes in spleen at 5 to 15 mg/kg, ip administered every other day and measured after 14 days by hematoxylin and eosin staining-based microscopic analysis; assay type: organism-based; conditions: in vivo, 336 h, dose 5-15 mg/kg, time 14 day
[26] = tested on: Mus musculus; test: as §1, with “death rate” for “colon length”; assay type: functional, organism-based; conditions: dose 5-10 mg/kg, time 21.0 day
[27] = tested on: HT-29; test: Induction of autophagic flux in human HT-29 cells assessed as increase in LC3I to LC3II conversion preincubated with chloroquine for 1 hr followed by compound addition and measured after 24 hrs by Western blot analysis; assay type: functional, cell-based
[28] = tested on: HT-29; test: Induction of cell cycle arrest in human HT-29 cells assessed as accumulation of cells at G2/M phase at 10 uM by RNase/PI staining based flow cytometry analysis (reference value: 9.93 %); assay type: functional
[29] = tested on: HT-29; test: Induction of cell cycle arrest in human HT-29 cells assessed as accumulation of cells at G0/G1 phase at 1 uM by RNase/PI staining based flow cytometry analysis (reference value: 50.73 %); assay type: functional
[30] = tested on: HCT-116; test: Induction of cell cycle arrest in human HCT-116 cells assessed as decrease in CDK4 protein expression upto 10 uM incubated for 24 hrs by Western blot analysis; assay type: functional, cell-based

Sequence of Nuclear factor NF-kappa-B complex (Homo sapiens) (P19838 whole entry, looked up): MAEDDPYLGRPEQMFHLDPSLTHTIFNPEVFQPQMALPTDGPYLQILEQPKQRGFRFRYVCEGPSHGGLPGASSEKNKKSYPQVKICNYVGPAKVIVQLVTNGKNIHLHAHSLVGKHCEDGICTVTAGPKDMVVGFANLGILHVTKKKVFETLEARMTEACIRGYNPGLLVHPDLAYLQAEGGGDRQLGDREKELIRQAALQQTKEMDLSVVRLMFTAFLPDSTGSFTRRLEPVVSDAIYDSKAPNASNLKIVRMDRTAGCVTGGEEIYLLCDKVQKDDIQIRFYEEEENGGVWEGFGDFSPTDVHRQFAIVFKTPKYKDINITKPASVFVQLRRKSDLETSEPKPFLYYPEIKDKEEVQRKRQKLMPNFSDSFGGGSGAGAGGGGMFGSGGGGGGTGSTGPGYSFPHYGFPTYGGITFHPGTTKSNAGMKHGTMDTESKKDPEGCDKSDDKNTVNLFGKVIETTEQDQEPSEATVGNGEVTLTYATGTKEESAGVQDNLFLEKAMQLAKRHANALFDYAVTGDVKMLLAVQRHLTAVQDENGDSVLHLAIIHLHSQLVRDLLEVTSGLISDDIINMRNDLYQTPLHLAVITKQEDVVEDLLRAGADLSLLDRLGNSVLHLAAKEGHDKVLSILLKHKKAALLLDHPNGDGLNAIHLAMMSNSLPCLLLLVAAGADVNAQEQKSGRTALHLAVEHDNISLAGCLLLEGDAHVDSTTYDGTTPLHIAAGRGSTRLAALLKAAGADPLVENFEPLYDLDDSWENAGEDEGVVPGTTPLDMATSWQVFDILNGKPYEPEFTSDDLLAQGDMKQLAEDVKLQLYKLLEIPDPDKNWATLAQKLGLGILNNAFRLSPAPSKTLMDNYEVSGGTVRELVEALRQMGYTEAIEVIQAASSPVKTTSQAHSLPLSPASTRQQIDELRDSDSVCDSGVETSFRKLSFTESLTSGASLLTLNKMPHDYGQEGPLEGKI
Sequence of Nuclear factor NF-kappa-B complex (Homo sapiens) (Q00653 whole entry, looked up): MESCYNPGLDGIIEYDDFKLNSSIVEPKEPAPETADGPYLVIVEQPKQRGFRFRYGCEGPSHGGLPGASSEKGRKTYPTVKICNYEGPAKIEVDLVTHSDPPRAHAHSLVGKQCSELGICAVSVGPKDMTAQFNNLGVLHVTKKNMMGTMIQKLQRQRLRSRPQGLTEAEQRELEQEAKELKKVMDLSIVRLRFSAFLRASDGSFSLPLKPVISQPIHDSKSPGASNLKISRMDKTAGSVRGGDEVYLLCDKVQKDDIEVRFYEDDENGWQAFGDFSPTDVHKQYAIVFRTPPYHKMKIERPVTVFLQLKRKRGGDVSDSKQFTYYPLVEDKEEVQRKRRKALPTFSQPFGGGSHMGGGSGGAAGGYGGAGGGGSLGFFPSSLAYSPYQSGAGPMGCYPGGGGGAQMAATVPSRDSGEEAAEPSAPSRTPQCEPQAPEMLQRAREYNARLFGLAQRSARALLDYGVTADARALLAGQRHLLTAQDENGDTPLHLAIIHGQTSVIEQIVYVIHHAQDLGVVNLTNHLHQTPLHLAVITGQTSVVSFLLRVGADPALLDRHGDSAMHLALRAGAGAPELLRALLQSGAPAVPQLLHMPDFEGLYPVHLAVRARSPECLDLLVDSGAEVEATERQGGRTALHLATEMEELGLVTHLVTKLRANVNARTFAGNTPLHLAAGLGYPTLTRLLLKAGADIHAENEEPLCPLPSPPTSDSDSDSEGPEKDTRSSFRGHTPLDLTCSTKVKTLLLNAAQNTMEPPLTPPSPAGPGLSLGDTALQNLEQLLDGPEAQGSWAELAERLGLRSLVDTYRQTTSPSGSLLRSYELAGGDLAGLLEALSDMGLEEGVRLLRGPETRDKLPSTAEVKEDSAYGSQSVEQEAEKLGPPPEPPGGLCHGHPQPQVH
Sequence of Nuclear factor NF-kappa-B complex (Homo sapiens) (Q04206 whole entry, looked up): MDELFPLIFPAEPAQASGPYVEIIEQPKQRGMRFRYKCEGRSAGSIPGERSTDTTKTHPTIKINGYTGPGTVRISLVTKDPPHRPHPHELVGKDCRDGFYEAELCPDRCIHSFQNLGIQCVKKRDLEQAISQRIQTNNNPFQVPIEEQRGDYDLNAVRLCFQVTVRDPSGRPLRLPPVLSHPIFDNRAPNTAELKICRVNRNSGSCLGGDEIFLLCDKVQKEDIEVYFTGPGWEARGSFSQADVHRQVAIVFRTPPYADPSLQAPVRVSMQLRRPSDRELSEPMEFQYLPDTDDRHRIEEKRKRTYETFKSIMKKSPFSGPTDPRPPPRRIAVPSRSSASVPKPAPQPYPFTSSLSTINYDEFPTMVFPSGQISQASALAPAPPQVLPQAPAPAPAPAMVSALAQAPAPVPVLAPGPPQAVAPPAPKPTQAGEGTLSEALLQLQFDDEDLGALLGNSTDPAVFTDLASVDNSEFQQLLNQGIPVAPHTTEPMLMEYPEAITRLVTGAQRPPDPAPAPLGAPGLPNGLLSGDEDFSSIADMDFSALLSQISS

## C[C@@H]1CC[C@H]2[C@H](C(=O)c3c(O)c([C@@]4(O)CC[C@@H](O)[C@H]5O[C@H]54)cn(O)c3=O)[C@H](C)C=C[C@@H]2C1
[1]
  Activity: 46.75%
[2]
  Activity: Active
[3]
  Activity: inactive
[4]
  Activity: Active
[5]
  Activity: 17.1%
[6]
  Activity: Tde
[7]
  Activity: inactive
[8]
  inhibition: Active
[9]
  Activity: Active
[10]
  Activity: 13.2%
[11]
  Activity: Active
[12]
  Activity: 6.72%
[13]
  Activity: Active
[14]
  Activity: 0.16%
[15]
  Activity: Active
[16]
  viability at 1 µM: 44.8%
[17]
  Activity: Active
[18]
  Activity: Active
[19]
  Activity: 1.56%
[20]
  Activity: Active
[21]
  Activity: 2.41%
[22]
  Activity: Active
[23]
  viability at 5 µM: 49.5%
[24]
  Activity: Active
[25]
  Activity: Non-Toxic
[26]
  Activity: Active
[27]
  Activity: Active
[28]
  Activity: 0.78%
[29]
  Activity: 69.17%
[30]
  Activity: Active
